According to US10980769B2, “Tiglien-3-one derivatives” (QBIOTICS PTY LTD, priority 2005, dated 2021):
Entries after “also recorded” stand apart in the source; their conditions may differ.

Assays:
[1] = tested on: murine B-cell lymphoma line A20; test: Systemic (intraperitoneal) treatment of A20 lymphoma in SCID-NOD mice; format: in vivo; settings: 5 doses of 20-25 μg from day 18, one mouse
Experimental: (§1) Animal experiments were conducted under Queensland Institute of Medical Research (QIMR) Animal Ethics Committee approvals. The B16 mouse melanoma model was obtained by injecting 0.5 million B16 mouse melanoma cells subcutaneously into each of the 2 flanks of a male C57BL/6 mouse. The human tumour xenografts were obtained by injecting 2 million of the respective tumour cell line into each of 4 sites on the flanks of male nude mice (BALB/c background). EBI-46 was applied: (a) topically by dilution of a concentrated solution in acetone into an isopropanol gel, once a day for 3 days; (b) intralesionally by injection into the tumour of drug dissolved in 25% propylene glycol-0.1 M saline, (c) systemically by injection intraperitoneally in 25% propylene glycol in 0.1 M saline. Tumour size was measured with electronic callipers in mm and converted to volume (cubic mm) using the formula: Tumour volume=length×breadth×breadth/2. Results
The murine B-cell lymphoma line A20 was used as an experimental model because it has been reported to grow well in mice and closely models the human situation.
SCID-NOD mice (BALB/c background) were shaved and 10E7 A20 cells injected subcutaneously (2 sites per mouse). The tumours tended to grow in a flat, diffuse manner and became raised and measurable at the 10E7 sites only after about 15 days. […]

[2] = tested on: NS1 murine myeloma cell line; test: CyTOX (Cy) chromogenic cytotoxicity bioassay; format: cell-based
Description: CyTOX (alternatively referred to herein as Cy) is a microtitre plate bioassay use to identify potential antitumour actives. CyTOX is a chromogenic bioassay with broad application to a wide range of tumour and non-tumour cell lines.
CyTOX features a liquid media into which the test compound has been incorporated together with a novel chromogen. As the cells grow and divide the chromogen is metabolised from purple in a single step process to a colourless metabolite. CyTOX was undertaken using NS1 murine myeloma cell line as a guide to mammalian cell toxicity.
Briefly, in CyTOX the cells were applied to the media containing the test chemical and allowed to grow for 72 hours. The assay was monitored at 24, 48 and 72 hours and the active wells identified.

MM96L cell line = test: Changes in morphology of cultured cells; format: cell-based, human
Stability = format: physicochemical
Description: This instability was observed upon nitrogen evaporation but not while in acetonitrile/water solution at room temperature or on vacuum evaporation. To avoid decomposition the equivalent four bands of active metabolites from the second preparative HPLC were individually back extracted in the ethyl acetate and evaporated under vacuum. Analytical HPLC of these samples confirmed minimal decomposition.
[…] The structure has no readily reactive groups which might otherwise confer instability.

HT-29 colon tumour cells = test: Cell scattering of cultured cells; format: cell-based, human
Description: In addition, scattering of MCF-7 and HT-29 colon tumour cells was observed, typical of PKC activators. […] Additionally, given their similarity in structure, EBI-47, EBI-59 and EBI-61 are also considered to be protein kinase C activators.

B16 mouse melanoma = test: Topical treatment of B16 melanoma tumours in C57BL/6 mice; format: in vivo
Experimental: Tumour cells were injected subcutaneously (2 million cells/site in 50 μL culture medium for LK2 cells, 0.5 million for B16) into 4 sites each on the flanks of nude mice (for LK2 cells) or C57BL/6 mice (B16 mouse melanoma cells). When tumours became visible (2-4 mm diameter) five to 10 days after injection of cells, 37 μg of EBI-46 in 25 μL, of isopropanol gel was applied to each tumour site, each day for 3 days. Tumour size was measured with calipers at appropriate intervals.
as §1
Topical application of EBI-46 in an isopropanol gel was carried out on the aggressive B16 mouse melanoma in its natural (syngeneic) host, C57BL/6 mice (0.5 million tumour cells injected per site).
The frequency (1 daily dose for 3 days only) and dose level for topical application of PKC activators was selected on the basis of in vitro activity on cell lines. The materials were dissolved in acetone and diluted into an isopropanol gel for topical application.
The aggressive and rapidly growing B16 mouse melanoma is recognised as a very stringent tumour model in which to test anticancer agents. Stringency was further increased by injecting at least 10× more tumour cells than the minimum required to form a tumour in the animal. […] Such tumours could be distinguished from subcutaneous tumours by their immobility when the skin was pulled around the body of the animal.

[3] = tested on: human nasopharyngeal tumour; test: Intralesional injection of human nasopharyngeal tumour in SCID-NOD mice; format: in vivo, mouse; settings: up to 3 injections, total of 25 μg in 25% propylene glycol-saline, 2 mice
Experimental: A second mouse model was tested in a pilot study, involving an 8 mm diameter human nasopharyngeal tumour implanted and growing subcutaneously on the neck of a SCID-NOD mouse. Up to 3 injections of EBI-46 (total of 25 μg in 75 μL25% propylene glycol-saline) were made into the NPC tumours of 2 mice.

MCF-7 = test: Cell scattering of cultured cells; format: cell-based, human
[4] = topical, approximately 150 μg/site

C/C=C(\C)C(=O)OC1C(C)C2(O)C(C3OC3(CO)C(O)C3(O)C(=O)C(C)=CC32)C2C(C)(C)C12OC(=O)C(C)CC (stereo not shown) [EBI-46, 12-tigloyl-13-(2-methylbutanoyl)-6,7-epoxy-4,5,9,12,13,20-hexahydroxy-1-tiglian-3-one]
tumour growth [1]: strongly inhibited | Cy Titre [2]: 8 | Cy LD99 ([2]; Table 6a, last well with activity, real value may be lower): 7.8 pg/mL | change in morphology of MM96L cells (MM96L cell line): characteristic change to bipolar morphology; also recorded: extreme bipolar morphology | stability of solution (Stability; 25% propylene glycol-saline at 4° C.): stable for weeks | stability by HPLC (Stability; PEG 400 containing 10% ethanol held at 37° C.): confirmed | stability of solutions (Stability; in ethanol, 4° C. for 4 weeks): retain bioactivity | scattering of HT-29 colon tumour cells (HT-29 colon tumour cells): scattering | systemic toxicity or lung metastases on post mortem (B16 mouse melanoma; topical 37 μg per site once a day for 3 days): There were no signs of | tumour growth (B16 mouse melanoma; topical 37 μg per site once a day for 3 days starting at day 5): inhibition of tumour growth. | inflammatory response (B16 mouse melanoma; [4]): mild | systemic toxicity or lung metastases (B16 mouse melanoma; [4]): no sign of systemic toxicity or lung metastases | tumour sites cured (B16 mouse melanoma; [4]): one site apparently cured | tumour response (B16 mouse melanoma; topical, approximately 150 μg/site, 1 daily dose for 3 days): good response | tumour outcome [3]: no sign of residual tumour; also recorded: delayed but not ablated | scattering of MCF-7 cells (MCF-7): cell scattering
